Values of other authors as cited in patent US8258301B2, “Urotensin II receptor antagonists” (Boehringer Ingelheim International GmbH, priority 2007, dated 2012).

Settings: patients, clinical trial

## Cc1cc(NC(=O)NCCN2CCC(O)(Cc3ccccc3)CC2)c2ccccc2n1 [Palosuran]
  modulate the 24-hour urinary albumin excretion rate: 24.3%
